Measurements reported in paper PMC10664828, “Tetrazole and acylsulfonamide bioisosteric replacements of the carboxylic acid in a dual MCL-1/BCL-xL inhibitor are tolerated” (RSC Advances, 2023).
Read-outs that look alike come from different tables or passages of the source.

Key:
MCL-1 [1] = target: T1, MCL-1 (Homo sapiens, UniProt Q07820); test: Fluorescence polarization competition assay (FPCA) with FITC-Bak, MCL-1; type: binding; settings: for fold better MCL-1 affinity than parent compound 1: relative to compound 1; for MCL-1 inhibition in FPCA (in words): cell-free MCL-1 binding assay
T1 construct: His6-MBP (cleaved yes); made in house; host or cells: E. coli
Description: The tagged protein was initially purified from the crude cell lysate by IMAC chromatography (GE Healthcare Life Sciences), and after dialysis to remove the imidazole the affinity tag was cleaved using PreScission Protease (GE Healthcare Life Sciences). A Sephacryl S-200 size exclusion column was used as a final purification step before the protein was concentrated with a 10 000 MWCO centrifugal filter concentrator (Millipore).
(§1) Fluorescence polarization experiments were conducted using a BMG PHERAstar FS multimode microplate reader equipped with two PMTs for simultaneous measurements of the perpendicular and parallel fluorescence emission. The assays were performed in black polypropylene 384-well microplate (Costar) with a final volume of […]. […] For the fluorescence polarization competition titrations, an equation derived by Nikolovska-Coleska et al.[16] was used to calculate the Ki from the IC50 data. All experiments were run in three biological replicates, each in triplicate.

HL60 cells = test: CellTiter-Blue cell viability assay; type: cell-based; settings: Homo sapiens
Description: Cell viability studies were conducted using the CellTiter-Blue® (Promega, Madison, WI) assay. Briefly, HL60 cells, were seeded in a 96-well plate and maintained at 37 °C with 5% CO2 for 24 h. The cells were then exposed to test compounds at 11 concentrations ranging from 0 to 20 mM. After 72 h, cell viabilities were then determined according to the manufacturer's instructions.

BCL-xL [2] = target: T2, BCL-xL (Homo sapiens, UniProt Q07817); test: Fluorescence polarization competition assay (FPCA) with FITC-Bak, BCL-xL; type: binding; settings: for Ki: read-out: K i (BCL-xL)
T2 construct: (or 15 nM Bcl-xL^2-212 (R&D Systems)); b80 says SinBiological
Description: BCl-xL was purchased from SinBiological.
as §1

[3] = cited from earlier work
BCL-xL [4] = target: T2, BCL-xL; settings: Table 2; FPCA; read-out: K i (BCL-xL); cited from earlier work
MCL-1 [5] = target: T1, MCL-1; settings: Table 2; FPCA; read-out: K i (MCL-1); cited from earlier work
[6] = Table 2, FPCA, read-out: K i (MCL-1)
[7] = HL-60, 72 h, 10% FBS, 72 h, read-out: HL60 IC50
[8] = HL-60, 72 h, […] FBS, 72 h, read-out: HL60 IC50
[9] = Table 1, FPCA, 100 nM Mcl-1 172-327, 10 nM FITC-Bak, read-out: K i

T2 sequence (Q07817 2-212): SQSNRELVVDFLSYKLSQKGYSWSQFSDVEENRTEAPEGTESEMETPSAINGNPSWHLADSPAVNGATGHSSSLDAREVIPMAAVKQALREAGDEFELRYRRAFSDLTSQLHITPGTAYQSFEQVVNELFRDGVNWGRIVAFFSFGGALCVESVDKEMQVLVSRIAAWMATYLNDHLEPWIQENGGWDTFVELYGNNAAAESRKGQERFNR
T1 sequence (Q07820 172-327): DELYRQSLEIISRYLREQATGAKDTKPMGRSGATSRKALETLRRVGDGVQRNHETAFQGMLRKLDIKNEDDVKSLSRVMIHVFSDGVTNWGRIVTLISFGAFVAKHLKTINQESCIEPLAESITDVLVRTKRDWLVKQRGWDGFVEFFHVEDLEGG

Ki (MCL-1 [1]; [6]) | IC50 (HL60 cells; [7]) | IC50 (HL60 cells; [8]) | Ki (BCL-xL [2]) | Ki (MCL-1 [1]; read-out: K i) | Structure (SMILES) | other results
0.8 ± 0.07 µM | > 120 µM | 7.45 µM | 1.82 ± 0.18 µM | – | Cc1cc(Oc2ccc(S(=O)(=O)N(Cc3ccccc3)c3ccc(C(=O)NS(=O)(=O)c4ccc(NCC5CCOCC5)c([N+](=O)[O-])c4)c(O)c3)cc2)cc(C)c1Cl [Compound 7d, 4-(N-Benzyl-4-(4-chloro-3,5-dimethylphenoxy)phenylsulfonamido)-2-hydroxy-N-((3-nitro-4-(((tetrahydro-2H-pyran-4-yl)methyl)amino)phenyl)sulfonyl)benzamide] | –
– | – | – | 2.34 ± 0.22 µM | 1.95 ± 0.22 µM | O=C(NS(=O)(=O)c1ccccc1)c1ccc(N(Cc2ccccc2)S(=O)(=O)c2ccc(Oc3ccccc3)cc2)cc1O [Compound 7b, 4-(N-Benzyl-4-phenoxyphenylsulfonamido)-2-hydroxy-N-(phenylsulfonyl)benzamide] | fold better MCL-1 affinity than parent compound 1 (MCL-1 [1]): ≥ 2 fold; fold improvement in BCL-xL inhibitory activity (BCL-xL [2]; relative to 7a): 3 fold
2.94 ± 0.35 µM | – | – | 7.22 ± 1.07 µM | – | CS(=O)(=O)NC(=O)c1ccc(N(Cc2ccccc2)S(=O)(=O)c2ccc(Oc3ccccc3)cc2)cc1O [Compound 7a, 4-(N-Benzyl-4-phenoxyphenylsulfonamido)-2-hydroxy-N-(methylsulfonyl)benzamide] | Ki (MCL-1 [1]; [9]): 2.94 ± 0.35 µM; fold better MCL-1 affinity than parent compound 1 (MCL-1 [1]): ≥ 2 fold; fold weaker BCL-xL inhibition than parent compound 17cd (BCL-xL [2]; relative to 17cd): about 4 fold
– | 53.2 µM | 5.79 µM | – | – | Cc1cc(Oc2ccc(S(=O)(=O)N(Cc3ccccc3)c3ccc(C(=O)O)c(O)c3)cc2)cc(C)c1Cl [Compound 17cd, reference compound] | IC50 (HL60 cells; HL-60, text of introduction, read-out: IC50, viability of human leukemia HL60 cells): 18.5 µM
1.23 ± 0.15 µM | – | – | 1.05 ± 0.14 µM | – | O=C(NS(=O)(=O)c1ccc(NCC2CCOCC2)c([N+](=O)[O-])c1)c1ccc(N(Cc2ccccc2)S(=O)(=O)c2ccc(Oc3ccccc3)cc2)cc1O [Compound 7c, 4-(N-Benzyl-4-phenoxyphenylsulfonamido)-2-hydroxy-N-((3-nitro-4-(((tetrahydro-2H-pyran-4-yl)methyl)amino)phenyl)sulfonyl)benzamide] | –

The remaining lines, values behind:

Structure (SMILES) | Ki (MCL-1 [1]; [6]) | IC50 (HL60 cells; [7]) | IC50 (HL60 cells; [8]) | Ki (BCL-xL [2]) | Ki (MCL-1 [1]; read-out: K i) | other results
Cc1cc(Oc2ccc(S(=O)(=O)N(Cc3ccccc3)c3ccc(O)c(C(=O)NS(=O)(=O)c4ccc(NCC5CCOCC5)c([N+](=O)[O-])c4)c3)cc2)cc(C)c1Cl [Compound 29, 5-(N-Benzyl-4-(4-chloro-3,5-dimethylphenoxy)phenylsulfonamido)-2-hydroxy-N-((3-nitro-4-(((tetrahydro-2H-pyran-4-yl)methyl)amino)phenyl)sulfonyl)benzamide] | 1.01 ± 0.08 µM | – | – | 1.54 ± 0.23 µM | – | –
COC(=O)c1ccc(N(CC(C)C)S(=O)(=O)c2ccc(Oc3ccccc3)cc2)cc1O [Compound 2, Methyl 2-hydroxy-4-(N-isobutyl-4-phenoxyphenylsulfonamido)benzoate] | – | 76.4 µM | 68.1 µM | – | > 500 µM | MCL-1 inhibition in FPCA (in words) (MCL-1 [1]): inactive
CC(C)CN(c1ccc(-c2cc(=O)[nH]o2)cc1)S(=O)(=O)c1ccc(Oc2ccccc2)cc1 [Compound 6, N-Isobutyl-N-(4-(3-oxo-2,3-dihydroisoxazol-5-yl)phenyl)-4-phenoxybenzenesulfonamide] | – | – | – | – | > 500 µM | MCL-1 inhibition in FPCA (in words) (MCL-1 [1]): no inhibition; pKa ([3]; value of the functional group): 4–5
Cc1cc(Oc2ccc(S(=O)(=O)N(CC(C)C)c3ccc(O)c(C(=O)O)c3)cc2)cc(C)c1Cl [Compound 6e-OH-5, reference compound] | – | > 120 µM | 9.82 µM | – | – | Ki (BCL-xL [4]): 2.19 ± 0.19 µM; Ki (MCL-1 [5]): 0.778 ± 0.041 µM
CC(C)CN(c1ccc(C#N)c(O)c1)S(=O)(=O)c1ccc(Oc2ccccc2)cc1 [Compound 8, N-(4-Cyano-3-hydroxyphenyl)-N-isobutyl-4-phenoxybenzenesulfonamide] | – | – | – | – | > 500 µM | MCL-1 inhibition in FPCA (in words) (MCL-1 [1]): no inhibition; pKa ([3]; cyanophenol, no reference given): about 7
CC(=O)OCOC(=O)c1ccc(N(CC(C)C)S(=O)(=O)c2ccc(Oc3ccccc3)cc2)cc1O [Compound 3, Acetoxymethyl 2-hydroxy-4-(N-isobutyl-4-phenoxyphenylsulfonamido)benzoate] | – | > 120 µM | 46.4 µM | – | > 500 µM | MCL-1 inhibition in FPCA (in words) (MCL-1 [1]): inactive
CC(C)CN(c1ccc(C(=O)NO)c(O)c1)S(=O)(=O)c1ccc(Oc2ccccc2)cc1 [Compound 4, N,2-Dihydroxy-4-(N-isobutyl-4-phenoxyphenylsulfonamido)benzamide] | – | – | – | – | – | Ki (MCL-1 [1]; [9]): 70.6 ± 5.8 µM; pKa ([3]; value of the functional group): 8–9
CC(C)CN(c1ccc(-c2nn[nH]n2)cc1)S(=O)(=O)c1ccc(Oc2ccccc2)cc1 [Compound 5, N-(4-(2H-Tetrazol-5-yl)phenyl)-N-isobutyl-4-phenoxybenzenesulfonamide] | – | > 120 µM | 15.7 µM | – | – | Ki (MCL-1 [1]; [9]): 3.29 ± 0.26 µM; fold better MCL-1 affinity than parent compound 1 (MCL-1 [1]): ≥ 2 fold; pKa ([3]; value of the functional group): 4–5
Cc1cc(Oc2ccc(S(=O)(=O)N(Cc3ccccc3)c3ccc(O)c(C(=O)O)c3)cc2)cc(C)c1Cl [Compound 27, 5-(N-Benzyl-4-(4-chloro-3,5-dimethylphenoxy)phenylsulfonamido)-2-hydroxybenzoic acid] | 1.4 ± 0.47 µM | – | – | – | – | Ki (BCL-xL [2]; Table 2, FPCA, 15 nM Bcl-xL 2-212, 10 nM FITC-Bak): 1.82 ± 0.23 µM
CC(C)CN(c1ccc(C(=O)O)c(O)c1)S(=O)(=O)c1ccc(Oc2ccccc2)cc1 [Compound 1] | – | > 120 µM | 18.5 µM | – | – | –
